From US12679850B2, “TYK2 inhibitors and uses thereof” (Alumis Inc., priority 2020, dated 2026)
pIC50, pKd: −log10 of the molar value.

Key:
[1] = biological target: T1, human TYK2 (JH2domain-pseudokinase) (Homo sapiens, UniProt P29597); assay: TYK2 JH2 domain binding assay (KINOMEscan); settings: 11-point 3-fold dilution, top concentration 30,000 nM, duplicate
T1 construct: host or cells: transiently transfected HEK293 cells; unpurified extract used
Method: Binding constants for the compounds described herein against the JH2 domain were determined by the following protocol for a KINOMEscan® assay (DiscoveRx). A fusion protein of a partial length construct of human TYK2 (JH2domain-pseudokinase) (amino acids G556 to D888 based on reference sequence NP_003322.3) and the DNA binding domain of NFkB is expressed in transiently transfected HEK293 cells. From these HEK 293 cells, extracts are prepared in M-PER extraction buffer (Pierce) in the presence of Protease Inhibitor Cocktail Complete (Roche) and Phosphatase Inhibitor Cocktail Set II (Merck) per manufacturers' instructions. The TYK2 (JH2domain-pseudokinase) fusion protein is labeled with a chimeric double-stranded DNA tag containing the NFkB binding site fused to an amplicon for qPCR readout, which is added directly to the expression extract (the final concentration of DNA-tag in the binding reaction is 0.1 nM). […]
The binding reaction is assembled by combining 16 μl of DNA-tagged kinase extract, 3.8 μl liganded affinity beads, and 0.18 μl test compound (PBS/0.05% Tween 20/10 mM DTT/0.1% BSA/2 μg/ml sonicated salmon sperm DNA)]. […] Kds were determined using an 11-point 3-fold compound dilution series with three DMSO control points. […]
Test compounds are prepared as 111× stocks in 100% DMSO. Kds were determined using an 11-point 3-fold compound dilution series with three DMSO control points. […]

pSTAT5 in Human PBMC = assay: INFα induced pSTAT5 in human PBMC; format: cell-based; settings: fresh human PBMC, compound 1 hour, INFα 5000 units/ml for 15 minutes, MSD Phospho STAT5 kit; read-out: p-STAT5 IC50
Method: Fresh Human PBMCs were resuspended in RPMI 1640 medium with 10% FBS. Cells were seeded in a round bottom 96-well plate at the concentration of 200,000 cells/well. A 10-point dilution series of test compound (top dose 10 uM, 1:5 dilution) was added to the well using the liquid dispenser (Tecan D300e) and incubated for 1 hour at 37 C. Then human INFα recombinant protein (R&D Systems) was added to the well at the final concentration of 5000 units/ml and incubated for 15 minutes at 37 C. Cell lysates were prepared and analyzed by Phospho STAT5 (Tyr693) Kit (Meso Scale Discovery) following manufacturer's protocol.
For calculation of the inhibition rate, the relative pSTAT5 signal of each well=pSTAT5 signal of each well−the average pSTAT5 signal of baseline.
The inhibition %=(the average pSTAT5 signal of INFα treatment wells−the relative of pSTAT5 signal in each compound containing well)/the average pSTAT5 signal of INFα treatment wells*100%
The curve was plotted as the inhibition % (y-axis) vs. compounds concentration (x-axis) and was fitted with log(inhibitor) vs. normalized response—Variable slope by GraphPad Prism7.0.

T1 sequence (P29597 556-888): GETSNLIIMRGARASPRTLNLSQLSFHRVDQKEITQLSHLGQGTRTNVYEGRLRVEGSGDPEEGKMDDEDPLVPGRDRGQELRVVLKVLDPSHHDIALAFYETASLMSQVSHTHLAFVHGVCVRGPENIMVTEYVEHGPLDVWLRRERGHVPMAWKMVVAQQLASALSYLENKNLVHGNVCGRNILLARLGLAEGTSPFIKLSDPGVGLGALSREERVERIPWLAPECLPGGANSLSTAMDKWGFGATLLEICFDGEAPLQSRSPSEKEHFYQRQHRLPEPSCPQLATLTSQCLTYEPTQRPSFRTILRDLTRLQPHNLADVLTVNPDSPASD

pKd [1]: 11.66
Compound: [2H]C([2H])([2H])n1nnc2c3cc(cc21)CO[C@@H]1CCC[C@H]1NC(=O)c1cnc2c(NC)cc(nn12)N3 [Example 1]
pIC50 (pSTAT5 in Human PBMC): 8.77
